{"source": "patent US20140113904A1", "about": "“TREATMENT OF CANCER WITH TOR KINASE INHIBITORS” (SIGNAL PHARMACEUTICALS, LLC, priority 2012, published 2014)", "key": {"Ki-67": {"test_system": "Ki-67", "test": "Ki-67 immunohistochemistry in PC3 tumors (Compound 1)", "assay_type": "in vivo, SCID mice", "details": "25 mg/kg oral QD for 6 days, 2 hours after last dose", "procedure": "Two hours after the last dose of either vehicle, Compound 1, or rapamycin, the mice were euthanized and the tumors were dissected. The tumors were snap frozen in liquid nitrogen and processed for immunohistochemistry (IHC) and TUNEL.\nFive to ten micron thick cryostat sections of tumor samples were used for IHC. The expression of a cell proliferation marker Ki-67 was evaluated by IHC using anti-Ki-67 antibody. Anti-CD-31 antibody was used to determine blood vessel density and is a measurement of tumor angiogenesis. Frozen sections were fixed in 4% paraformaldehyde for 10 minutes at room temperature, washed in PBS, blocked and permeabilized with normal goat serum and triton x-100. Sections were then incubated with primary antibody (overnight) followed by incubation with secondary antibody (60 minutes). […] The sections were visualized with a Nikon E800 microscope equipped with fluorescence detection equipment and a digital camera attached to a computer.\nThe tissues sections processed for apoptosis or immunostained for proliferating cells (Ki-67) or blood vessels were quantitated using Metamorph software. Using 20× objective, 5 different fields from each section, 2 to 4 sections from each tumor, and 3 to 4 tumors from each treatment group or control were used for quantitation. The area of interest was expressed as the percent threshold area of the total area."}, "PC3 cells [1]": {"test_system": "PC3 cells", "test": "WST-1 cell proliferation assay (Compound 1, rapamycin)", "assay_type": "cell-based, human", "details": "read-out: Compound 1 Growth Inhibition IC50; PC3, 3 days", "procedure": "All test wells were in triplicate on the plate and in a final volume of 200 μL. The final concentration of DMSO in all wells was 0.2%. […] All growth inhibition experiments were repeated on different occasions at least twice. Potency was determined from calculating the IC50 value from the data describing the growth inhibition curve. A reference compound was included in each plate assay to monitor inter-assay variation and the IC50 from the reference was used as part of the acceptance criteria for the assay.\nNext, compound was added to the designated well at a dilution of 1:10 (i.e., 20 μL of the diluted compound was added to 180 μL of culture media in each well). The final dilution of compound was 1:500 which yielded a final DMSO concentration of 0.2% in each well. All concentrations were performed in triplicate. […] Absorbance was measured at 450 nm on the VICTOR™ X2 multilabel plate reader (PerkinElmer).\nRaw data was saved as a text file and then entered into Activity Base (Cell-based SAR; Prolif-MTT, MTT-6pt-5plates unfixed fit. Version2). The software (XLfit from IDBS) calculated the percent inhibition at each compound concentration by normalizing to the DMSO control values for each set of triplicate wells. Percent inhibition curves were plotted and IC50 values calculated.\nAll data was analyzed using XLfit from IDBS. […]"}, "PC3 cells [2]": {"test_system": "PC3 cells", "test": "Cell cycle distribution by flow cytometry-based PI staining", "set-up": "species or system human", "procedure": "PC3 tumor cells were plated at 250,000 cells per well in a 6-well plate and allowed to equilibrate overnight in 5% CO2 at 37° C. For treatment, the media was aspirated to remove dead/floating cells before addition of 3 mL of media with or without compound. […] The cells were then processed for cell cycle analysis. The media was transferred into a 15 mL tube. The cells were trypsinized and transferred to the same tube. The cells were then spun at 12 000 rpm, re-suspended in 500 μL propidium iodide (PI) staining buffer, and incubated at room temperature in the dark for 30 minutes. The sample was then analyzed on a FACSCaliber instrument. The cell cycle experiments were performed on two independent occasions.\nThe raw data collected from BD FACS Calibur was analyzed by cell cycle software ModFit LT (Verity Software House, Inc). The histogram was generated using the automatic analysis setting. All numbers generated by ModFit LT were transferred to Microsoft Excel and graphed.\nPC3 cells display an aneuploid phenotype which is evident in the comparison with HeLa cells."}, "pAKT (S473)": {"test_system": "pAKT (S473)", "test": "pAKT (S473) in PC3 tumors, MSD (Compound 2)", "assay_type": "in vivo, SCID mice", "details": "Mus musculus; for inhibition at 0.1 mg/kg: 0.1 mg/kg single oral dose; for inhibition at 0.3 mg/kg: 0.3 mg/kg single oral dose; for inhibition at 10 mg/kg: 10 mg/kg single oral dose"}, "[3]": {"details": "0.5 h, read-out: PD Marker Inhibition (%) pAKT (S473)"}, "[4]": {"details": "1 h, read-out: PD Marker Inhibition (%) pAKT (S473)"}, "[5]": {"details": "3 h, read-out: PD Marker Inhibition (%) pAKT (S473)"}, "[6]": {"details": "6 h, read-out: PD Marker Inhibition (%) pAKT (S473)"}, "[7]": {"details": "10 h, read-out: PD Marker Inhibition (%) pAKT (S473)"}, "[8]": {"details": "24 h, read-out: PD Marker Inhibition (%) pAKT (S473)"}}, "note": "Read-outs that look alike come from different tables or passages of the source."}
{"compound": "CO[C@H]1CC[C@H](N2C(=O)CNc3ncc(-c4ccc(C(C)(C)O)nc4)nc32)CC1", "note": "[Compound 1, 7-(6-(2-hydroxypropan-2-yl)pyridin-3-yl)-1-((1r,4r)-4-methoxycyclohexyl)-3,4-dihydropyrazino-[2,3-b]pyrazin-2(1H)-one]", "values": [{"measurement": "reduction in the number of proliferating cells (Ki-67) vs vehicle", "setting": "Ki-67", "result": 84, "unit": "%"}, {"measurement": "IC50", "setting": "PC3 cells [1]", "result": 110, "unit": "nM"}, {"measurement": "% G1", "setting": "PC3 cells [2]; 0.5 μM, 24 hours", "result": 81.1, "unit": "%"}, {"measurement": "% G1a", "setting": "PC3 cells [2]; 0.5 μM, 24 hours", "result": 79, "unit": "%"}, {"measurement": "% G1", "setting": "PC3 cells [2]; 1 μM, 24 hours", "result": 88.6, "unit": "%"}, {"measurement": "% G1a", "setting": "PC3 cells [2]; 1 μM, 24 hours", "result": 84.8, "unit": "%"}, {"measurement": "% G1", "setting": "PC3 cells [2]; 5 μM, 24 hours", "result": 89.2, "unit": "%"}, {"measurement": "% G1a", "setting": "PC3 cells [2]; 5 μM, 24 hours", "result": 83.9, "unit": "%"}, {"measurement": "induction of apoptosis (sub-G1 peak)", "setting": "PC3 cells [2]; 24 hours", "result": "did not appear to be induction of apoptosis"}, {"measurement": "effect on cell cycle distribution", "setting": "PC3 cells [2]; concentrations relevant to growth inhibition", "result": "capable of inducing a G1 arrest"}]}
{"compound": "CCN1C(=O)CNc2ncc(-c3ccc(-c4nc[nH]n4)nc3C)nc21", "note": "[Compound 2, 1-ethyl-7-(2-methyl-6-(1H-1,2,4-triazol-3-yl)pyridin-3-yl)-3,4-dihydropyrazino[2,3-b]pyrazin-2(1H)-one]", "values": [{"measurement": "inhibition at 0.1 mg/kg", "setting": "pAKT (S473); [3]", "result": 50, "unit": "%"}, {"measurement": "inhibition at 0.1 mg/kg", "setting": "pAKT (S473); [4]", "result": 25.1, "unit": "%"}, {"measurement": "inhibition at 0.1 mg/kg", "setting": "pAKT (S473); [5]", "result": 15.3, "unit": "%"}, {"measurement": "inhibition at 0.1 mg/kg", "setting": "pAKT (S473); [6]", "result": 14.2, "unit": "%"}, {"measurement": "inhibition at 0.1 mg/kg", "setting": "pAKT (S473); [7]", "result": 2.5, "unit": "%"}, {"measurement": "inhibition at 0.1 mg/kg", "setting": "pAKT (S473); [8]", "result": 0, "unit": "%"}, {"measurement": "inhibition at 0.3 mg/kg", "setting": "pAKT (S473); [3]", "result": 77.2, "unit": "%"}, {"measurement": "inhibition at 0.3 mg/kg", "setting": "pAKT (S473); [4]", "result": 70.7, "unit": "%"}, {"measurement": "inhibition at 0.3 mg/kg", "setting": "pAKT (S473); [5]", "result": 52.9, "unit": "%"}, {"measurement": "inhibition at 0.3 mg/kg", "setting": "pAKT (S473); [6]", "result": 42.2, "unit": "%"}, {"measurement": "inhibition at 0.3 mg/kg", "setting": "pAKT (S473); [7]", "result": 23, "unit": "%"}, {"measurement": "inhibition at 0.3 mg/kg", "setting": "pAKT (S473); [8]", "result": 9.6, "unit": "%"}, {"measurement": "inhibition at 1 mg/kg", "setting": "pAKT (S473); 1 mg/kg single dose, through 10 hours, read-out: inhibition of pAKT (S473) in tumor", "result": "~65", "unit": "%"}, {"measurement": "inhibition at 1 mg/kg", "setting": "pAKT (S473); 1 mg/kg single oral dose, 1 h, read-out: PD Marker Inhibition (%) pAKT (S473)", "result": 79.6, "unit": "%"}, {"measurement": "inhibition at 1 mg/kg", "setting": "pAKT (S473); 1 mg/kg single oral dose, 3 h, read-out: PD Marker Inhibition (%) pAKT (S473)", "result": 65.1, "unit": "%"}, {"measurement": "inhibition at 1 mg/kg", "setting": "pAKT (S473); 1 mg/kg single oral dose, 6 h, read-out: PD Marker Inhibition (%) pAKT (S473)", "result": 69.9, "unit": "%"}, {"measurement": "inhibition at 1 mg/kg", "setting": "pAKT (S473); 1 mg/kg single oral dose, 10 h, read-out: PD Marker Inhibition (%) pAKT (S473)", "result": 65.5, "unit": "%"}, {"measurement": "inhibition at 1 mg/kg", "setting": "pAKT (S473); 1 mg/kg single oral dose, 24 h, read-out: PD Marker Inhibition (%) pAKT (S473)", "result": 19, "unit": "%"}, {"measurement": "inhibition at 10 mg/kg", "setting": "pAKT (S473); [4]", "result": 87.6, "unit": "%"}, {"measurement": "inhibition at 10 mg/kg", "setting": "pAKT (S473); [5]", "result": 88.3, "unit": "%"}, {"measurement": "inhibition at 10 mg/kg", "setting": "pAKT (S473); [6]", "result": 86.9, "unit": "%"}, {"measurement": "inhibition at 10 mg/kg", "setting": "pAKT (S473); [7]", "result": 86, "unit": "%"}, {"measurement": "inhibition at 10 mg/kg", "setting": "pAKT (S473); [8]", "result": 79.8, "unit": "%"}]}
